Reference: patent publication US12448388B2, “PRMT5 inhibitors and uses thereof” (Gilead Sciences, Inc., priority 2023, dated 2025)
Converted amounts (≈) assume the structure as drawn. Read-outs that look alike come from different tables or passages of the source.

Experiments:
[1] = tested on: HCT116 MTAP-deleted cell lines; test: Cell viability assay (CellTiter-Glo, 7 days), HCT116 MTAP-deleted; assay type: cell-based; conditions: for Selectivity: HCT116 WT CC50 versus HCT116 MTAP^del CC50; for plasma-adjusted CC50 (paCC50): paCC50 = CC50-HCT116-MTAP^del * (% free CCM/% free human plasma); for CC50: Homo sapiens, HCT116 MTAP-deleted
Method in brief: (§1)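 First, compounds are serially diluted in DMSO and dispensed into plates, which are frozen until seeding. Next, cells are added and incubated 7 days at 37 °C, 5% CO2, 90% humidity. Finally, CellTiter-Glo reagent is added and luminescence is measured to derive CC50.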

[2] = Cell viability assay (CellTiter-Glo, 7 days), HCT116 WT; assay type: cell-based; conditions: human, HCT116 WT cells, 7 days of treatment, CTG
Method in brief: as §1

[3] = Pharmacokinetics in cassette in male Sprague-Dawley rats for Kp measurement; assay type: in vivo; conditions: 1 mg/kg, intravenous
Experimental: E.1 Test Animal: Male Sprague-Dawley Rats (225-300 g) with Indwelling Bilateral Jugular Vain Cannula (JVC/JVC) or Single Jugular Vein Cannula (JVC)
E.2 Pharmaceutical Formulation and Administration
Test compound was dissolved in the vehicle of 10% DMSO, 10% ethanol, 40% polyethylene glycol 300, and 40% propylene glycol to get 1 mg/mL test compound solution. The compound was administered by intravenous administration at a dose of 1 mL/kg. Fasting was not required.
• Anticoagulant: K2EDTA • Volume: approximately 225 μL blood at each bleed • Jugula vein via syringe and needle or another method (non-terminal samples) or exsanguination (cardiac puncture) under isoflurane (or CO2 inhalation if isoflurane is unavailable) anesthesia (terminal time points). Blood samples were collected into K2EDTA tubes • Tissue collection and processing: following the terminal blood collection, the brain and CSF were collected from each animal.

[4] = PBS solubility (kinetic solubility from DMSO stocks); assay type: physicochemical; conditions: 22 °C, aqueous buffer, kinetic from dmso stock; 1x PBS pH 7.4, 1.0% DMSO, 24-hour incubation at ambient temperature
Method in brief: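 Kinetic solubility in 1× PBS pH 7.4 with 1.0% final DMSO, maximum theoretical concentration 100 μM from 10 mM stock. After 24 h at ambient temperature (20.8-24.0 °C) the samples were vacuum-filtered and filtrates quantified by nitrogen detection against a calibration curve. Values were background-corrected and reported in μM and μg/mL.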

[5] = HCT-116, * Calculated using Low throughput hEQDS
[6] = HCT-116, 168 h, 7 days of treatment, CTG, read-out: CC50-HCT116-MTAP^del
[7] = HCT-116, cell viability, class symbols, read-out: CC50
[8] = brain Kp = [brain]/[plasma], rat, read-out: Rat brain Kp
[9] = brain Kpu,u = Kp * (plasma free/rat brain free), read-out: Rat brain Kpu,u
[10] = HCT-116, cell viability assay, class symbols, read-out: CC50

Structure (SMILES) | Kp [3, 8] | Kp [3, 9] | solubility at 24 h [4] [µM] | Selectivity [1] | plasma-adjusted CC50 (paCC50) [1, 5] [nM] | CC50 [1, 6] [nM] | CC50 [1, 7] [nM] | CC50 at 7 days [2] [nM] | plasma-adjusted CC50 (paCC50) ([1]; HCT-116) [nM] | CC50 [1, 10] [nM]
C[C@H]1CN(C(=O)c2cc3c(cc2F)nc(N)c2cncn23)[C@H]2c3ccc(C(F)(F)F)cc3C[C@H]2O1 (single isomer, unassigned) [Ff-81] | 0.17 | 0.04 | 18.5 (≈ 8.98 µg/mL) | 71 | 591 | 19 | < 100 | 1350 |  | 
Nc1nc2cc(F)c(C(=O)N3CCO[C@@H]4Cc5cc(C(F)(F)F)ccc5[C@@H]43)cc2n2cncc12 (single isomer, unassigned) [Ff-82] | 0.15 | 0.02 | 17.9 (≈ 8.44 µg/mL) | 77 |  | 27 | < 100 | 2070 | 408 | 
C[C@H]1CN(C(=O)c2cc3c(cc2F)nc(N)c2cncn23)[C@H]2c3cc(F)c(C(F)F)cc3C[C@H]2O1 (single isomer, unassigned) [Ff-173] | 0.12 | 0.03 | 9.9 (≈ 4.81 µg/mL) | 64 |  | 35 | < 100 | 2250 | 1160 | 
C[C@@H]1CN(C(=O)c2cc3c(cc2F)nc(N)c2cncn23)[C@H]2c3ccc(OC(F)(F)F)cc3C[C@H]2O1 (single isomer, unassigned) [Ff-183] | 0.41 | 0.06 | 1.6 (≈ 0.802 µg/mL) | 57 |  | 15 | < 100 | 853 | 257 | 
C[C@@H]1CN(C(=O)c2cc3c(cc2F)nc(N)c2cncn23)[C@H]2c3cc(F)c(OC(F)(F)F)cc3C[C@H]2O1 (single isomer, unassigned) [Ff-197] | 0.22 | 0.06 | < 1 | 47 |  | 15 | < 100 | 712 | 217 | 
Nc1nc2cnc(C(=O)N3CC[C@H]4C[C@@H]3c3c(F)cc(C(F)(F)F)cc3O4)cc2n2cncc12 (single isomer, unassigned) [Ff-694] | 0.29 |  | 50.2 (≈ 23.7 µg/mL) | 72 |  | 10 |  | 723 | 120 | 
Nc1nc2cnc(C(=O)N3CC[C@H]4C[C@@H]3c3ccc(C(F)(F)F)c(F)c3O4)cc2n2cncc12 [Ff-684, (4-aminoimidazo[1,5-a]pyrido[3,4-e]pyrazin-8-yl)((2S,6R)-10-fluoro-9-(trifluoromethyl)-3,4-dihydro-2H-2,6-methanobenzo[b][1,5]oxazocin-5(6H)-yl)methanone] |  |  | 28.4 (≈ 13.4 µg/mL) | 93 |  | 14 |  | 1310 | 465 | < 100
Nc1nc2cnc(C(=O)N3CC[C@H]4C[C@@H]3c3ccc(OC(F)(F)F)cc3O4)cc2n2cncc12 [Ff-685, (4-aminoimidazo[1,5-a]pyrido[3,4-e]pyrazin-8-yl)((2S,6R)-9-(trifluoromethoxy)-3,4-dihydro-2H-2,6-methanobenzo[b][1,5]oxazocin-5(6H)-yl)methanone] |  |  | 16.1 (≈ 7.57 µg/mL) | 71 |  | 16 |  | 1130 | 357 | < 100
[2H]C1([2H])CC[C@@H]2Oc3cc(C(F)(F)F)ccc3[C@@H]2N1C(=O)c1cc2c(cn1)nc(N)c1cncn12 [Fg-60, (4-aminoimidazo[1,5-a]pyrido[3,4-e]pyrazin-8-yl)((4aS,9bS)-7-(trifluoromethyl)-3,4,4a,9b-tetrahydrobenzofuro[3,2-b]pyridin-1(2H)-yl-2,2-d2)methanone] |  |  |  | 98 |  | 7 |  | 683 |  | < 100

Now from value to compound, other results behind:

Kp [3, 8] | Kp [3, 9] | solubility at 24 h [4] [µM] | Structure (SMILES) | Selectivity [1] | plasma-adjusted CC50 (paCC50) [1, 5] [nM] | CC50 [1, 6] [nM] | CC50 [1, 7] [nM] | CC50 at 7 days [2] [nM] | plasma-adjusted CC50 (paCC50) ([1]; HCT-116) [nM] | CC50 [1, 10] [nM]
0.29 | 0.05 | 19.9 (≈ 9.4 µg/mL) | Nc1nc2cnc(C(=O)N3CCC[C@@H]4Oc5cc(C(F)(F)F)cc(F)c5[C@@H]43)cc2n2cncc12 (single isomer, unassigned) [Fg-53] | 84 | 139 | 6 |  | 503 |  | < 100
0.2 | 0.05 | 13.7 (≈ 6.69 µg/mL) | Nc1nc2cnc(C(=O)N3CCC[C@@H]4Oc5cc(OC(F)(F)F)cc(F)c5[C@@H]43)cc2n2cncc12 (single isomer, unassigned) [Fg-55] | 89 | 190 | 9 |  | 799 |  | < 100
0.39 | 0.07 | < 1 | Nc1nc2cc(F)c(C(=O)N3CCC[C@@H]4Oc5cc(C(F)(F)F)ccc5[C@@H]43)cc2n2cncc12 [Ff-104, (4-amino-7-fluoroimidazo[1,5-a]quinoxalin-8-yl)((4aS,9bS)-7-(trifluoromethyl)-3,4,4a,9b-tetrahydrobenzofuro[3,2-b]pyridin-1(2H)-yl)methanone] | 94 | 139 | 5 | < 100 | 470 |  | 
0.1 | 0.02 | 2.3 (≈ 1.09 µg/mL) | Nc1nc2cnc(C(=O)N3CCC[C@@H]4Oc5c(ccc(C(F)(F)F)c5F)[C@@H]43)cc2n2cncc12 [Ff-109, (4-aminoimidazo[1,5-a]pyrido[3,4-e]pyrazin-8-yl)((4aS,9bS)-6-fluoro-7-(trifluoromethyl)-3,4,4a,9b-tetrahydrobenzofuro[3,2-b]pyridin-1(2H)-yl)methanone] | 92 |  | 15 | < 100 | 1380 | 276 | 
0.48 | 0.06 | 1.7 (≈ 0.773 µg/mL) | Nc1nc2cnc(C(=O)N3CCC[C@@H]4Oc5cc(C(F)(F)F)ccc5[C@@H]43)cc2n2cncc12 [Ff-110, (4-aminoimidazo[1,5-a]pyrido[3,4-e]pyrazin-8-yl)((4aS,9bS)-7-(trifluoromethyl)-3,4,4a,9b-tetrahydrobenzofuro[3,2-b]pyridin-1(2H)-yl)methanone] | 86 |  | 6 | < 100 | 516 | 100 | 
0.4 | 0.06 | 1.1 (≈ 0.499 µg/mL) | Nc1nc2ccc(C(=O)N3CCC[C@@H]4Oc5cc(C(F)(F)F)ccc5[C@@H]43)cc2n2cncc12 [Ff-111, (4-aminoimidazo[1,5-a]quinoxalin-8-yl)((4aS,9bS)-7-(trifluoromethyl)-3,4,4a,9b-tetrahydrobenzofuro[3,2-b]pyridin-1(2H)-yl)methanone] | 110 |  | 10 | < 100 | 1100 | 139 | 
0.2 | 0.06 | < 1 | Cc1ncc2c(N)nc3cnc(C(=O)N4CCC[C@@H]5Oc6cc(OC(F)(F)F)ccc6[C@@H]54)cc3n12 [Ff-340, (4-amino-1-methylimidazo[1,5-a]pyrido[3,4-e]pyrazin-8-yl)((4aS,9bS)-7-(trifluoromethoxy)-3,4,4a,9b-tetrahydrobenzofuro[3,2-b]pyridin-1(2H)-yl)methanone] | 107 |  | 23 | < 100 | 2460 | 298 | 
 |  | 5.1 (≈ 2.45 µg/mL) | Nc1nc2cnc(C(=O)N3CC4(CC4)C[C@@H]4Oc5cc(C(F)(F)F)ccc5[C@@H]43)cc2n2cncc12 [Ff-648, (4-aminoimidazo[1,5-a]pyrido[3,4-e]pyrazin-8-yl)((4aS,9bS)-7-(trifluoromethyl)-4a,9b-dihydro-2H-spiro[benzofuro[3,2-b]pyridine-3,1′-cyclopropan]-1(4H)-yl)methanone] | 72 |  | 9 |  | 650 | 262 | < 100
